Experimental data reported in ChEMBL document CHEMBL1201862, “PubChem BioAssay data set” (2004).
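Results reflect a 48-hour exposure of cells in 96-well plates to compound at five concentrations. Here, GI50 denotes the concentration required for 50% inhibition of growth.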 The source made the active and inactive calls. No stated cut-off is given here; in the data, active = GI50 up to about 1.1 µM and inactive = higher.

Legend:
Assay in all cases: NCI anticancer screen, dose series, 48 h
A498 = system: A498
BT-549 = system: BT-549
CAKI-1 = system: CAKI-1
HCT-116 = system: HCT-116
HCT-15 = system: HCT-15
HOP-92 = system: HOP-92
KM12 = system: KM12
LOX IMVI = system: LOX IMVI
M14 = system: M14
MCF7 = system: MCF7
MDA-MB-231 = system: MDA-MB-231
MDA-MB-435 = system: MDA-MB-435
Malme-3M = system: Malme-3M
NCI-H23 = system: NCI-H23
OVCAR-3 = system: OVCAR-3
SNB-19 = system: SNB-19
T47D = system: T47D
UACC-257 = system: UACC-257
UACC-62 = system: UACC-62
UO-31 = system: UO-31

| Structure (SMILES) | GI50 (A498) | GI50 (BT-549) | GI50 (CAKI-1) | GI50 (HCT-116) | GI50 (HCT-15) [µM] | GI50 (HOP-92) | GI50 (KM12) | GI50 (LOX IMVI) | GI50 (M14) | GI50 (MCF7) | GI50 (MDA-MB-231) | GI50 (MDA-MB-435) | GI50 (Malme-3M) | GI50 (NCI-H23) | GI50 (OVCAR-3) | GI50 (SNB-19) | GI50 (T47D) | GI50 (UACC-257) | GI50 (UACC-62) | GI50 (UO-31) |
| --- | --- | --- | --- | --- | --- | --- | --- | --- | --- | --- | --- | --- | --- | --- | --- | --- | --- | --- | --- | --- |
| NC(=O)c1ncn2c(=O)n(CCCl)nnc12 [MITOZOLOMIDE] | 191 µM (inactive) | 83.2 µM (inactive) | 107 µM (inactive) | 132 µM (inactive) | 175 | 136 µM (inactive) | 180 µM (inactive) | 22.8 µM (inactive) | 195 µM (inactive) | 120 µM (inactive) | 220 µM (inactive) | 170 µM (inactive) | 145 µM (inactive) | 149 µM (inactive) | 205 µM (inactive) | 93.5 µM (inactive) | 214 µM (inactive) | 159 µM (inactive) | 24.7 µM (inactive) | 236 µM (inactive) |
| Cc1ccc(NC(=O)/C(Cc2cc(=O)oc3cc(O)ccc23)=N\NC(=O)C[N+](C)(C)C)cc1C | > 100 µM (inactive) | > 100 µM (inactive) | > 100 µM (inactive) | > 100 µM (inactive) | > 100 | > 100 µM (inactive) | > 100 µM (inactive) | > 100 µM (inactive) | > 100 µM (inactive) | > 100 µM (inactive) | > 100 µM (inactive) | > 100 µM (inactive) | > 100 µM (inactive) | > 100 µM (inactive) | > 100 µM (inactive) | > 100 µM (inactive) | > 100 µM (inactive) | > 100 µM (inactive) | > 100 µM (inactive) | > 100 µM (inactive) |
| CSc1nc2ccccc2c(=O)n1/N=C1\C(=O)N(CN2CCCCC2)c2ccc(Cl)cc21 | 27.8 µM (inactive) | 15 µM (inactive) | 23.3 µM (inactive) | 18.5 µM (inactive) | 13.3 | 32.9 µM (inactive) | 25.1 µM (inactive) | 14.2 µM (inactive) | 30.5 µM (inactive) | 18.7 µM (inactive) | 55.1 µM (inactive) | 26.6 µM (inactive) | > 100 µM (inactive) | 28.4 µM (inactive) | 59.3 µM (inactive) | 61.5 µM (inactive) | 13.3 µM (inactive) | 20.4 µM (inactive) | 8.89 µM (inactive) | 45.8 µM (inactive) |
| Brc1c2c(c(Br)c3nsnc13)N=S=N2 | 42.6 µM (inactive) | 12.3 µM (inactive) | 19.1 µM (inactive) | 27.4 µM (inactive) | 24.6 | 17.4 µM (inactive) | 46.3 µM (inactive) | 3.84 µM (inactive) | 22.5 µM (inactive) | 24.2 µM (inactive) | 23.4 µM (inactive) | 29.7 µM (inactive) | 31.3 µM (inactive) | 23.3 µM (inactive) | 20.9 µM (inactive) | 26.1 µM (inactive) | 27.7 µM (inactive) | 42.4 µM (inactive) | 16.2 µM (inactive) | 22.8 µM (inactive) |
| C[C@]12CCC(=O)C=C1C[C@@H](O)[C@@H]1[C@@H]2CC[C@@]2(C)[C@H]1CC[C@]2(C)O | > 100 µM (inactive) | > 100 µM (inactive) | > 100 µM (inactive) | > 100 µM (inactive) | > 100 | > 100 µM (inactive) | > 100 µM (inactive) | > 100 µM (inactive) | > 100 µM (inactive) | > 100 µM (inactive) | > 100 µM (inactive) | > 100 µM (inactive) | > 100 µM (inactive) | > 100 µM (inactive) | > 100 µM (inactive) | > 100 µM (inactive) | > 100 µM (inactive) | > 100 µM (inactive) | > 100 µM (inactive) | > 100 µM (inactive) |
| Clc1cccc(Cl)c1C(Nc1nncs1)Nc1nncs1 | 49.2 µM (inactive) | 73.3 µM (inactive) | 75.3 µM (inactive) | 28.6 µM (inactive) | 13 | > 100 µM (inactive) | 27.7 µM (inactive) | 21.8 µM (inactive) | 36.2 µM (inactive) | 36 µM (inactive) | > 100 µM (inactive) | 11.1 µM (inactive) | 64.4 µM (inactive) | 40.2 µM (inactive) | 46.7 µM (inactive) | 52 µM (inactive) | 56.8 µM (inactive) | 18.2 µM (inactive) | 67 µM (inactive) | 62.7 µM (inactive) |
| COc1ccc(/C=N/NS(=O)(=O)c2ccc(/C=C3\NC(=O)NC3=O)cc2)cc1 | > 100 µM (inactive) | > 100 µM (inactive) | > 100 µM (inactive) | > 100 µM (inactive) | > 100 | > 100 µM (inactive) | > 100 µM (inactive) | > 100 µM (inactive) | > 100 µM (inactive) | > 100 µM (inactive) | 11.2 µM (inactive) | > 100 µM (inactive) | > 100 µM (inactive) | > 100 µM (inactive) | > 100 µM (inactive) | 90.8 µM (inactive) | > 100 µM (inactive) | > 100 µM (inactive) | > 100 µM (inactive) | > 100 µM (inactive) |
| C=CCCCCNC(=O)C[C@@H]1C2=C(CC[C@H]1O[Si](C)(C)C(C)(C)C)N1C(=O)CCC/C=C\C1C2 (stereo not given in full) | 15.2 µM (inactive) | 16.6 µM (inactive) | 12.4 µM (inactive) | 13.3 µM (inactive) | 14 | 11 µM (inactive) | 15 µM (inactive) | 17 µM (inactive) | 14.3 µM (inactive) | 12.2 µM (inactive) | 13.3 µM (inactive) | 14.6 µM (inactive) | 14.7 µM (inactive) | 13.7 µM (inactive) | 14 µM (inactive) | 14.4 µM (inactive) | 12.7 µM (inactive) | 13.1 µM (inactive) | 12.9 µM (inactive) | 14.2 µM (inactive) |
| CC(=O)Nc1cc(CN2CCCCC2)c(O)c2ncccc12 | 65.9 µM (inactive) | 77.4 µM (inactive) | 16.6 µM (inactive) | 20.9 µM (inactive) | 6.01 | 49.5 µM (inactive) | 23.9 µM (inactive) | 20.2 µM (inactive) | 15.4 µM (inactive) | 24.7 µM (inactive) | 15.8 µM (inactive) | 31.4 µM (inactive) | 22.9 µM (inactive) | 40.7 µM (inactive) | 25.8 µM (inactive) | 39.7 µM (inactive) | 11.8 µM (inactive) | 24.7 µM (inactive) | 19.6 µM (inactive) | 7.35 µM (inactive) |
| COc1ccc2cc(C(=O)NCCCNC(=O)c3ccc4cc(OC)ccc4c3)ccc2c1 | 44.8 µM (inactive) | > 64.7 µM (inactive) | > 82.4 µM (inactive) | > 86.7 µM (inactive) | > 100 | 14.7 µM (inactive) | > 100 µM (inactive) | > 100 µM (inactive) | > 100 µM (inactive) | > 100 µM (inactive) | 21.1 µM (inactive) | > 100 µM (inactive) | > 100 µM (inactive) | > 100 µM (inactive) | > 100 µM (inactive) | 17.2 µM (inactive) | > 75.7 µM (inactive) | > 96.2 µM (inactive) | > 100 µM (inactive) | > 75.7 µM (inactive) |
| CN(CCc1ccc(Cl)c(Cl)c1)CCN(C)CCN1CCCC1 | 13.1 µM (inactive) | 16.7 µM (inactive) | 15.2 µM (inactive) | 5.62 µM (inactive) | 14.5 | 3.66 µM (inactive) | 10.9 µM (inactive) | 4.76 µM (inactive) | 4.86 µM (inactive) | 12.1 µM (inactive) | 8.99 µM (inactive) | 2.02 µM (inactive) | 5.02 µM (inactive) | 14.2 µM (inactive) | 23.3 µM (inactive) | 17.4 µM (inactive) | 19.2 µM (inactive) | 2.36 µM (inactive) | 1.98 µM (inactive) | 5.15 µM (inactive) |
